Assay results as given in US12139520B2 (priority 2020, dated 2024).
Bridge positions count the residues as written; N and C are the ends. Square brackets hold non-standard residues; d marks the D form. Peptide text beside a SMILES is read from it. Hyp = O=C(O)[C@@H]1C[C@@H](O)CN1

Assay: Physical stability of peptide analogues (Thioflavin T fibrillation)
Assay type: physicochemical
Conditions: maximum ThT signal normalized between hAMY maximum and buffer background; 40° C., shaking, four days; pH 7 per table title
Protocol: General Protocols for Determination of Physical Stability of Peptide Analogues
Peptides were dissolved in buffers (50 mM sodium acetate at pH 4 or 50 mM sodium phosphate at pH 7) and incubated for one hour. The samples were then divided into two replicates of 80 μl in a black 384 well plate (μ-clear, Greiner Bio-One) and mixed with Thioflavin T (ThT) to a final concentration of 4 μM. The plate was sealed and placed in a plate reader (CLARIOstar, BMG) where the temperature was set at 40° C. during the course of the experiment. The samples were further stressed by shaking the plate at 700 rpm (linear) for five minutes before every measurement. The fluorescence was measured every 10 min for four days by exciting the ThT at 450 nm and measuring the emission at 480 nm. For each peptide, the ThT signal over time was smoothened using Local Polynomial Regression fitting (LOESS) as implemented in the statistical programming environment R. For the smoothened data, the maximum ThT signal was normalized in percent between the maximum ThT signal for hAMY and the buffer background.

Structure (SMILES) | Max ThT signal (%)
CC[C@H](C)[C@H](NC(=O)[C@H](CCC(N)=O)NC(=O)[C@H](Cc1c[nH]cn1)NC(=O)[C@H](C)NC(=O)[C@H](CC(C)C)NC(=O)[C@H](CCCNC(=N)N)NC(=O)[C@H](CCC(N)=O)NC(=O)[C@@H](NC(=O)[C@@H](NC(=O)[C@@H]1CSSC[C@H](NC(=O)CN)C(=O)N[C@@H](CCCNC(=N)N)C(=O)N[C@@H]([C@@H](C)O)C(=O)NCC(=O)N[C@@H]([C@@H](C)O)C(=O)N1)[C@@H](C)O)C(C)C)C(=O)N[C@@H](Cc1ccc(O)cc1)C(=O)N[C@@H](CCC(N)=O)C(=O)N[C@@H](Cc1ccccc1)C(=O)N[C@H](C(=O)N[C@@H](CC(=O)O)C(=O)N[C@@H](CCCCN)C(=O)N[C@@H](Cc1ccccc1)C(=O)N[C@@H](CCCCN)C(=O)N[C@@H](CC(=O)O)C(=O)N[C@@H](CC(N)=O)C(=O)N[C@H](C(=O)N[C@@H](C)C(=O)N1CCC[C@H]1C(=O)N[C@@H](CCCNC(=N)N)C(=O)N[C@@H](CO)C(=O)N[C@@H](CCCCN)C(=O)N[C@H](C(=O)N[C@@H](CO)C(=O)N1CCC[C@H]1C(=O)N[C@@H](CCC(N)=O)C(=O)N[C@@H](Cc1ccccc1)C(=O)N1C[C@H](O)C[C@H]1C(N)=O)[C@@H](C)CC)C(C)C)[C@@H](C)O [compound 211] (H-GCRTGTCTVQRLAHQIYQFTDKFKDNVAPRSKISPQF[Hyp]-NH2; disulfide 2-7; N-terminus assumed) | 5.200%
CC[C@H](C)[C@H](NC(=O)[C@H](CCC(N)=O)NC(=O)[C@H](Cc1c[nH]cn1)NC(=O)[C@H](C)NC(=O)[C@H](CC(C)C)NC(=O)[C@H](CCCNC(=N)N)NC(=O)[C@H](CCC(N)=O)NC(=O)[C@@H](NC(=O)[C@@H](NC(=O)[C@@H]1CSSC[C@H](NC(=O)CN)C(=O)N[C@@H](CCCNC(=N)N)C(=O)N[C@@H]([C@@H](C)O)C(=O)NCC(=O)N[C@@H]([C@@H](C)O)C(=O)N1)[C@@H](C)O)C(C)C)C(=O)N[C@@H](Cc1c[nH]cn1)C(=O)N[C@@H](CCC(N)=O)C(=O)N[C@@H](Cc1ccccc1)C(=O)N[C@H](C(=O)N[C@@H](CC(N)=O)C(=O)N[C@@H](CCCCN)C(=O)N[C@@H](CC(=O)O)C(=O)N[C@@H](CCCCN)C(=O)N[C@@H](CC(=O)O)C(=O)N[C@@H](CC(N)=O)C(=O)N[C@H](C(=O)N[C@@H](C)C(=O)N1CCC[C@H]1C(=O)N[C@@H](CCCNC(=N)N)C(=O)N[C@@H](CO)C(=O)N[C@@H](CCCCN)C(=O)N[C@H](C(=O)N[C@@H](CO)C(=O)N1CCC[C@H]1C(=O)N[C@@H](CCC(N)=O)C(=O)N[C@H](C(=O)N1C[C@H](O)C[C@H]1C(N)=O)[C@@H](C)O)[C@@H](C)CC)C(C)C)[C@@H](C)O [compound 227] (H-GCRTGTCTVQRLAHQIHQFTNKDKDNVAPRSKISPQT[Hyp]-NH2; disulfide 2-7; N-terminus assumed) | 8.500%
CC[C@H](C)[C@H](NC(=O)[C@H](CCC(N)=O)NC(=O)[C@H](Cc1c[nH]cn1)NC(=O)[C@H](C)NC(=O)[C@H](CC(C)C)NC(=O)[C@H](CCCNC(=N)N)NC(=O)[C@H](CCC(N)=O)NC(=O)[C@@H](NC(=O)[C@@H](NC(=O)[C@@H]1CSSC[C@H](NC(=O)[C@@H](N)CCCCN)C(=O)N[C@@H](CC(N)=O)C(=O)N[C@@H]([C@@H](C)O)C(=O)N[C@@H](C)C(=O)N[C@@H]([C@@H](C)O)C(=O)N1)[C@@H](C)O)C(C)C)C(=O)N[C@@H](Cc1ccc(O)cc1)C(=O)N[C@@H](CCC(N)=O)C(=O)N[C@@H](Cc1ccccc1)C(=O)N[C@H](C(=O)N[C@@H](CCCCN)C(=O)N[C@@H](CC(=O)O)C(=O)N[C@@H](CCCCN)C(=O)N[C@@H](CC(=O)O)C(=O)N[C@@H](CC(N)=O)C(=O)N[C@H](C(=O)N[C@@H](C)C(=O)N1CCC[C@H]1C(=O)N1CCC[C@H]1C(=O)N[C@H](C(=O)N[C@@H](CC(N)=O)C(=O)N[C@H](C(=O)NCC(=O)N[C@@H](CO)C(=O)N[C@@H](CC(N)=O)C(=O)NCC(=O)N1C[C@H](O)C[C@H]1C(N)=O)C(C)C)[C@@H](C)O)C(C)C)[C@@H](C)O [compound 29] (H-KCNTATCTVQRLAHQIYQFTKDKDNVAPPTNVGSNG[Hyp]-NH2; disulfide 2-7; N-terminus assumed) | 9.300%
